Measured values from ChEMBL document CHEMBL3860106, “Identification of the Binding Site of Chroman-4-one-Based Sirtuin 2-Selective Inhibitors using Photoaffinity Labeling in Combination with Tandem Mass Spectrometry” (J Med Chem, 2016).
Activity calls are given as the source filed them. The rule behind the calls is not given here.

Legend:
[1] = molecular target: T1, NAD-dependent protein deacetylase sirtuin-2 (Homo sapiens) (UniProt Q8IXJ6); assay: Inhibition of SIRT2 (unknown origin) at 200 uM by fluorescence-based assay
T1 sequence (whole entry): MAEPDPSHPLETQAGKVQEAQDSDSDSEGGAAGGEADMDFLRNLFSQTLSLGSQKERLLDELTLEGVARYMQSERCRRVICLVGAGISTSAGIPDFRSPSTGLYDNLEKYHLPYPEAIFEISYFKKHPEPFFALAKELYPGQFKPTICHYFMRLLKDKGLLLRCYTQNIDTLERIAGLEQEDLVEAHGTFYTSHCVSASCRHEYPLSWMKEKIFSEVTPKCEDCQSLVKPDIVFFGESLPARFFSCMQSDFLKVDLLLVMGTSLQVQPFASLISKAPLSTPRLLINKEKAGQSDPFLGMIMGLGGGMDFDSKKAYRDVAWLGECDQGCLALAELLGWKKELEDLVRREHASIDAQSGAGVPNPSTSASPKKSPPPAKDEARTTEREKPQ

[2] = Drug metabolism assessed as compound formation using compound 4 irradiated with 365 nm 23 mW/cm2 UV light using high-power light-emitting diode by UV/vis spectroscopy; type: ADME
[3] = Photo activation assessed as [photo-decomposition irradiated with 365 nm 23 mW/cm2 UV light using high-power light-emitting diode by 1H and 19F NMR spectroscopy; type: physicochemical
[4] = molecular target: T2, NAD-dependent protein deacetylase sirtuin-2 (Homo sapiens, UniProt Q8IXJ6); assay: Inhibition of SIRT2 (unknown origin) by fluorescence-based assay
T2 sequence (Q8IXJ6 whole entry): T1 sequence (whole entry)

[5] = molecular target: T1, NAD-dependent protein deacetylase sirtuin-2 (Homo sapiens); assay: Binding affinity to recombinant SIRT2 (unknown origin) assessed as detection of tryptic peptide with amino acid sequence 175-IAGLEQEDLVEAHGTFYTSHCVSASCRHEYPLSWMK-210 at 400 uM in presence of NAD+ and peptide substrate by LC-MS/MS method
[6] = molecular target: T1, NAD-dependent protein deacetylase sirtuin-2 (Homo sapiens); assay: Binding affinity to recombinant SIRT2 (unknown origin) assessed as photoaffinity labeling at H187 residue at 400 uM in presence of NAD+ and peptide substrate by LC-MS/MS method

Row | SMILES | inhibition [1] | Drug uptake [2] | Drug metabolism [3] | IC50 [4] | Activity [5] | Activity [6]
1 | CCCCCC1CC(=O)c2cc(N=[N+]=[N-])ccc2O1 (configuration not stated) | 51% |  |  |  |  | 
2 | CCCCCC1CC(=O)c2cc(C(=[N+]=[N-])C(F)(F)F)ccc2O1 (configuration not stated) |  | Metabolite_Detected |  |  |  | 
3 | CCCCCC1CC(=O)c2cc(C3(C(F)(F)F)N=N3)ccc2O1 (configuration not stated) | 78% |  | Metabolite_Detected | 8.2 µM | Active | Active
